We go through four compounds from patent publication US9023789B2, “Amylin analogs and pharmaceutical compositions thereof” (Novo Nordisk A/S, priority 2012, dated 2015).

Numbered stars: 1 amine (or outer) side, 2 acyl side, 3 side chain; on linkers, the order of the positions; unused ones are H or OH. Bridge positions count the residues as written; N and C are the ends. Side chains are listed from the residue outwards. Peptide text beside a SMILES is read from it. * marks the point of attachment. C20 diacid = O=C(O)CCCCCCCCCCCCCCCCCCC(=O)*; γGlu = O=C(O)[C@H](CCC(=O)[*:2])N[*:1]; AEEA = NCCOCCOCC(=O)O

Series [1] in a line: ASSAY (III) ThT fibrillation assay for physical stability. Format: physicochemical. In outline:
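Physical stability scored by ThT fluorescence (444 nm excitation, 485 nm emission) tracked every 20 min during 37 °C incubation with 960 rpm shaking, ThT at 1 μM final. Values are replicate means with SD at chosen times; HPLC against pramlintide standard gives initial and post-assay soluble concentrations.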

Series [2] concerns the target T1, rat amylin receptor (rat calcitonin receptor + rat RAMP 3) (Rattus norvegicus, UniProt P32214+Q9JJ73).
T1 construct: expressed in transfected cells; host or cells: BHK tk'ts 13 (transient, FuGENE 6), membranes
T1 sequence (P32214 25-479 isoform P32214-2 limits assumed): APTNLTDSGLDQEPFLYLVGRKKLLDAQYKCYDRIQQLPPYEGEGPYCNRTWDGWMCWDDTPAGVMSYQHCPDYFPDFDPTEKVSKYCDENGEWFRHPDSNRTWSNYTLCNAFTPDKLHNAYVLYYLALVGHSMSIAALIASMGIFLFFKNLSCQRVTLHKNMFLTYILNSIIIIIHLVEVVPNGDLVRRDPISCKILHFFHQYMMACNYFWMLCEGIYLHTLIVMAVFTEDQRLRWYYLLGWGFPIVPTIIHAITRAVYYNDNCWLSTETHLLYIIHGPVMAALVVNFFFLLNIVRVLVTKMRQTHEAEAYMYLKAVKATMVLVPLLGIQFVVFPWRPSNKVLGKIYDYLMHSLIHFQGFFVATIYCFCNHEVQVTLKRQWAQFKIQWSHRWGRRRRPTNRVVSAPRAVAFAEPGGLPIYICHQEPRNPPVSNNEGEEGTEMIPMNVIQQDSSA
T1 sequence (Q9JJ73 23-147 partner): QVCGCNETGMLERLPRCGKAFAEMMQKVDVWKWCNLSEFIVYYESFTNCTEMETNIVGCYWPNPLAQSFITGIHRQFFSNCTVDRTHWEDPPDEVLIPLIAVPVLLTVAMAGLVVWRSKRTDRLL
Nature of the series: ASSAY (VI) binding to the rat amylin receptor. Conditions: for IC50: binding to rat amylin receptor, read-out: rAmylin-R bind IC50. In short, it runs like this: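 The cell-membrane assay assessed binding at the rat amylin receptor. BHK tk′ts 13 cells were transfected transiently with rat calcitonin receptor, with FuGENE® 6 (Roche) as the transfection reagent, used per the manufacturer's recommendations. Approximately 48 hours after transfection the cells were harvested, and membranes were prepared for measuring binding.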

For series [3], the target named is T2, rat calcitonin receptor (Rattus norvegicus, UniProt P32214).
T2 construct: expressed in transfected cells; host or cells: BHK tk'ts 13 (transient, FuGENE 6), membranes
T2 sequence (P32214 25-479 isoform P32214-2 limits assumed): T1 sequence (P32214 25-479 isoform P32214-2 limits assumed)
Nature of the series: ASSAY (VIII) binding to the rat calcitonin receptor. Conditions: Table 7, read-out: rCTR bind IC50. In short, it runs like this: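 Receptor source: membranes from transiently transfected BHK tk′ts 13 cells expressing rat calcitonin receptor, collected roughly 48 hours after transfection.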

The target of series [4] is T3, human calcitonin receptor (Homo sapiens, UniProt P30988).
T3 construct: expressed in transfected cells
T3 sequence (P30988 25-474): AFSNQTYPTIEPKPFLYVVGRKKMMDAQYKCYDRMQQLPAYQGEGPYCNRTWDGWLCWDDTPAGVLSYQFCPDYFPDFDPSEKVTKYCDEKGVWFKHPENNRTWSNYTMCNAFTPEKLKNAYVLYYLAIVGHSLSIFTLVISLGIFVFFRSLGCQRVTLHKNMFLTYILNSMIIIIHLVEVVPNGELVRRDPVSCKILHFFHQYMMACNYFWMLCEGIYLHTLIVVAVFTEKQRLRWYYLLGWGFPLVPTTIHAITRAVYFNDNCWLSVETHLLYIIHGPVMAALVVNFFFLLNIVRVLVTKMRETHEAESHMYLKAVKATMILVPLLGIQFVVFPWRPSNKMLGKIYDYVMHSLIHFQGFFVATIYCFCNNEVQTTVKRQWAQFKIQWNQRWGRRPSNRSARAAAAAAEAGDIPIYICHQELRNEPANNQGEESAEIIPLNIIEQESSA
Put plainly: ASSAY (VII) binding to the human calcitonin receptor (SPA, 125I-Calcitonin).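 Also: cell membranes (35 ng/µL) combined with SPA beads in 40 µL of pH 7.4 Hepes buffer, 384-well format, signal counted on a TopCounter instrument.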 The conditions noted are these: read-out: hCTR bind IC50.
Description: Membranes were prepared in the following way; the cells were rinsed with PBS and incubated with Versene for approximately 5 min before harvesting. The cells were flushed with PBS and the cell-suspension was centrifuged for 5 min at 1000 rpm. […] The resulting pellet was resuspended in buffer 2 and protein concentration was measured (BCA protein Assay, Pierce). The homogenate was kept cold during the whole procedure. The membranes were kept at −80° C. until use. Assay was performed in a 384 well Optiplate (PerkinElmer) in a total volume of 40 ul. Membranes were mixed with SPA beads. Final concentration of membranes 35 ng/μL final and Final concentration of SPA beads was 0.05 mg/well. Test-compounds were dissolved in DMSO and further diluted in assay buffer (50 mM Hepes, pH 7.4, 1 mM CaCl2, 5 mM MgCl2, 0.1% OA and 0.02% Tween20). […] Samples were analyzed on TopCounter™ (Packard).

Setting [5] is: Table 7, rat binding selectivity, rCTR IC50 / rAmylin-R IC50.
The mark [6] stands for this setting: Table 7a (preferred compounds), rat binding selectivity, rCTR IC50 / rAmylin-R IC50.
Where [7] appears, read: ratio of rCTR bind IC50 to rAmylin-R bind IC50.

A word on the IC50: it is the point on the concentration scale where inhibition reaches its midpoint. With `CC[C@H](C)[C@H](NC(=O)[C@H](C)NC(=O)CNC(=O)[C@H](Cc1ccccc1)NC(=O)[C@H](CC(N)=O)NC(=O)[C@@H]1CCCN1C(=O)[C@H](CO)NC(=O)[C@H](CO)NC(=O)[C@H](Cc1c[nH]cn1)NC(=O)[C@H](CCCNC(=N)N)NC(=O)[C@H](CC(C)C)NC(=O)[C@H](Cc1ccccc1)NC(=O)[C@H](CC(N)=O)NC(=O)[C@H](C)NC(=O)[C@H](CC(C)C)NC(=O)[C@H](CCCNC(=N)N)NC(=O)[C@H](CCC(N)=O)NC(=O)[C@@H](NC(=O)[C@H](C)NC(=O)[C@@H]1CSSC[C@H](NC(=O)[C@@H](N)CCCCNC(=O)CC[C@H](NC(=O)CCCCCCCCCCCCCCCCCCC(=O)O)C(=O)O)C(=O)N[C@@H](CC(N)=O)C(=O)N[C@@H]([C@@H](C)O)C(=O)N[C@@H](C)C(=O)N[C@@H]([C@@H](C)O)C(=O)N1)[C@@H](C)O)C(=O)N1CCC[C@H]1C(=O)N[C@@H](CO)C(=O)N[C@@H](CO)C(=O)N[C@H](C(=O)N[C@@H](CC(N)=O)C(=O)N[C@H](C(=O)NCC(=O)N[C@@H](CO)C(=O)N[C@@H](CC(N)=O)C(=O)N[C@H](C(=O)N[C@@H](Cc1ccc(O)cc1)C(N)=O)[C@@H](C)O)C(C)C)[C@@H](C)O` [Example 48], in series [1], the “ThT pH 4.0 lag time (h)” value was found to be 25 h. The results for the IC50 in series [2] (Table 7), in series [3] and in series [4] were 0.558 nM, 112 nM and 30.9 nM, respectively. Further, the “Ratio rCT/rAmylin binding” value in series [2] (setting [5]), in series [2] (setting [6]) and in series [2] (setting [7]) was 201.3 in each case.
Turning to `CC[C@H](C)[C@H](NC(=O)[C@H](C)NC(=O)CNC(=O)[C@H](Cc1ccccc1)NC(=O)[C@H](CC(N)=O)NC(=O)[C@@H]1CCCN1C(=O)[C@H](CO)NC(=O)[C@H](CO)NC(=O)[C@H](Cc1c[nH]cn1)NC(=O)[C@H](CCCNC(=N)N)NC(=O)[C@H](CC(C)C)NC(=O)[C@H](Cc1ccccc1)NC(=O)[C@H](CC(N)=O)NC(=O)[C@H](C)NC(=O)[C@H](CC(C)C)NC(=O)[C@H](CCCNC(=N)N)NC(=O)[C@H](CCC(N)=O)NC(=O)[C@@H](NC(=O)[C@H](C)NC(=O)[C@@H]1CSSC[C@H](NC(=O)[C@@H](N)CCCCNC(=O)COCCOCCNC(=O)CC[C@H](NC(=O)CCCCCCCCCCCCCCCCCCC(=O)O)C(=O)O)C(=O)N[C@@H](CC(N)=O)C(=O)N[C@@H]([C@@H](C)O)C(=O)N[C@@H](C)C(=O)N[C@@H]([C@@H](C)O)C(=O)N1)[C@@H](C)O)C(=O)N1CCC[C@H]1C(=O)N1CCC[C@H]1C(=O)N[C@@H](CO)C(=O)N[C@H](C(=O)N[C@@H](CC(N)=O)C(=O)N[C@H](C(=O)NCC(=O)N1CCC[C@H]1C(=O)N[C@@H](CC(N)=O)C(=O)N[C@H](C(=O)N[C@@H](Cc1ccc(O)cc1)C(N)=O)[C@@H](C)O)C(C)C)[C@@H](C)O` [Example 55] (H-K([AEEA-γGlu-C20 diacid])CNTATCATQRLANFLRHSSPNFGAIPPSTNVGPNTY-NH2; disulfide 2-7; N-terminus assumed), the “ThT pH 4.0 lag time (h)” value in series [1] is on record as 24 h. The IC50 in series [2] (Table 7) stood at 0.081 nM; in series [3] it was 6.25 nM; in series [4] it was 2.18 nM. The “Ratio rCT/rAmylin binding” value in series [2] (setting [5]), in series [2] (setting [6]) and in series [2] (setting [7]) was 77.2 throughout.
As for `CC[C@H](C)[C@H](NC(=O)[C@H](C)NC(=O)CNC(=O)[C@H](Cc1ccccc1)NC(=O)[C@H](CC(N)=O)NC(=O)[C@@H]1CCCN1C(=O)[C@H](CO)NC(=O)[C@H](CO)NC(=O)[C@H](Cc1c[nH]cn1)NC(=O)[C@H](CCCNC(=N)N)NC(=O)[C@H](CC(C)C)NC(=O)[C@H](Cc1ccccc1)NC(=O)[C@H](CC(N)=O)NC(=O)[C@H](C)NC(=O)[C@H](CC(C)C)NC(=O)[C@H](CCCNC(=N)N)NC(=O)[C@H](CCC(N)=O)NC(=O)[C@@H](NC(=O)[C@H](C)NC(=O)[C@@H]1CSSC[C@H](NC(=O)[C@@H](N)CCCCNC(=O)CC[C@H](NC(=O)CCCCCCCCCCCCCCCCCCC(=O)O)C(=O)O)C(=O)N[C@@H](CC(N)=O)C(=O)N[C@@H]([C@@H](C)O)C(=O)N[C@@H](C)C(=O)N[C@@H]([C@@H](C)O)C(=O)N1)[C@@H](C)O)C(=O)N1CCC[C@H]1C(=O)N[C@@H](CO)C(=O)N[C@@H](CO)C(=O)N[C@H](C(=O)N[C@@H](CC(N)=O)C(=O)N[C@H](C(=O)NCC(=O)N[C@@H](CCCNC(=N)N)C(=O)N[C@@H](CC(N)=O)C(=O)N[C@H](C(=O)N[C@@H](Cc1ccc(O)cc1)C(N)=O)[C@@H](C)O)C(C)C)[C@@H](C)O` [Example 79] (H-K([γGlu-C20 diacid])CNTATCATQRLANFLRHSSPNFGAIPSSTNVGRNTY-NH2; disulfide 2-7 (inferred); N-terminus assumed), the “ThT pH 4.0 lag time (h)” value in series [1] is reported as 21 h. In addition, the IC50 came out at 1.65 nM in series [2] (Table 7), 35.5 nM in series [3] and 36.4 nM in series [4]. The “Ratio rCT/rAmylin binding” value in series [2] (setting [5]), in series [2] (setting [6]) and in series [2] (setting [7]) was 21.5 each time.
Consider `CC[C@H](C)[C@H](NC(=O)[C@H](C)NC(=O)CNC(=O)[C@H](Cc1ccccc1)NC(=O)[C@H](CC(N)=O)NC(=O)[C@@H]1CCCN1C(=O)[C@H](CO)NC(=O)[C@H](CO)NC(=O)[C@H](Cc1c[nH]cn1)NC(=O)[C@H](CCCNC(=N)N)NC(=O)[C@H](CC(C)C)NC(=O)[C@H](Cc1ccccc1)NC(=O)[C@H](Cc1c[nH]cn1)NC(=O)[C@H](C)NC(=O)[C@H](CC(C)C)NC(=O)[C@H](CCCNC(=N)N)NC(=O)[C@H](CCC(N)=O)NC(=O)[C@@H](NC(=O)[C@H](C)NC(=O)[C@@H]1CSSC[C@H](NC(=O)[C@H](CCCNC(=N)N)NC(=O)CNC(=O)CC[C@H](NC(=O)CCCCCCCCCCCCCCCCCCC(=O)O)C(=O)O)C(=O)N[C@@H](CC(N)=O)C(=O)N[C@@H]([C@@H](C)O)C(=O)N[C@@H](C)C(=O)N[C@@H]([C@@H](C)O)C(=O)N1)[C@@H](C)O)C(=O)N1CCC[C@H]1C(=O)N[C@@H](CO)C(=O)N[C@@H](CO)C(=O)N[C@H](C(=O)N[C@@H](CC(N)=O)C(=O)N[C@H](C(=O)NCC(=O)N[C@@H](CO)C(=O)N[C@@H](CC(N)=O)C(=O)N[C@H](C(=O)N[C@@H](Cc1ccc(O)cc1)C(N)=O)[C@@H](C)O)C(C)C)[C@@H](C)O` [Example 99] ({C20 diacid-γGlu}-GRCNTATCATQRLAHFLRHSSPNFGAIPSSTNVGSNTY-NH2; disulfide 3-8), for which, in series [1], the “ThT pH 4.0 lag time (h)” value was found to be 17 h. Besides, the IC50 in series [2] (Table 7) was determined as 2.7 nM; in series [3], 216 nM. Further, the “Ratio rCT/rAmylin binding” value in series [2] (setting [5]), in series [2] (setting [6]) and in series [2] (setting [7]) was 79.8 in each case.
